Source: publication PMC10700596 (Nature Communications, 2023)

Assays:
GPR160 = GPR160 (Homo sapiens, UniProt Q9UJ42); assay type: cell-based
Experimental: (§1) EP4R. e) EP4R functional cyclic AMP production assay. Dose-response curves were obtained for 74 (KB […]
(§2) production assays for the prostaglandin D2 (PGD2) receptor or the Thromboxane A2 (TP) receptor, respectively. AZD1981 and Ramatroban were used as control PGD2 and TP receptor antagonists, respectively. U46619 served as a TP receptor agonist. H) GPCRome off-target screening of 74 at 10 µM. i) Potential off-targets that met the activity threshold (3-fold of increase of basal) in the GPCRome screen (GPR174, GPR160, or NMUR2) were investigated with full dose-response curves in PRESTO-Tango […]
(§3) Data in a)-d), f)-g), i) represents mean ± SEM of three independent experiments. Data in e) represents two technical replicates. Data in h) represents mean ± SEM of four technical replicates. Source data are provided as a Source Data file.
(§4) (1 picture or pasted object on this page, not shown here)

NMUR2 = NMUR2 (Homo sapiens, UniProt Q9GZQ4); assay type: cell-based
Experimental: as §1, §2, §3, §4

GPR174 = GPR174 (Homo sapiens, UniProt Q9BXC1); assay type: cell-based
Experimental: as §1, §2, §3, §4

SNARK = SNARK (Homo sapiens, UniProt Q9H093); assay: biochemical; assay type: binding; conditions: 10000 nM; read-out: Percent Control
CSNK1D = CSNK1D (Homo sapiens, UniProt P48730); assay: biochemical; assay type: binding; conditions: 10000 nM; read-out: Percent Control
PKAC-alpha = PKAC-alpha (Homo sapiens, UniProt P17612); assay: biochemical; assay type: binding; conditions: 10000 nM; read-out: Percent Control
Description: (§5) Source data are provided as a Source Data file.

KIT(V559D,T670I) = KIT(V559D,T670I) (Homo sapiens, UniProt P10721, T670I/V559D); assay: biochemical; assay type: binding; conditions: 10000 nM; read-out: Percent Control
Description: as §5

MAPKAPK2 = MAPKAPK2 (Homo sapiens, UniProt P49137); assay: biochemical; assay type: binding; conditions: 10000 nM; read-out: Percent Control
Description: as §5

MAP3K4 = MAP3K4 (Homo sapiens, UniProt Q9Y6R4); assay: biochemical; assay type: binding; conditions: 10000 nM; read-out: Percent Control
Description: as §5

PIK3C2B = PIK3C2B (Homo sapiens, UniProt O00750); assay: biochemical; assay type: binding; conditions: 10000 nM; read-out: Percent Control
Description: as §5

MEK2 = MEK2 (Homo sapiens, UniProt P36507); assay: biochemical; assay type: binding; conditions: 10000 nM; read-out: Percent Control
Description: as §5

VEGFR2 = VEGFR2 (Homo sapiens, UniProt P35968); assay: biochemical; assay type: binding; conditions: 10000 nM; read-out: Percent Control
Description: as §5

PDGFRA = PDGFRA (Homo sapiens, UniProt P16234); assay: biochemical; assay type: binding; conditions: 10000 nM; read-out: Percent Control
Description: as §5

RAF1 = RAF1 (Homo sapiens, UniProt P04049); assay: biochemical; assay type: binding; conditions: 10000 nM; read-out: Percent Control
Description: as §5

KIT = KIT (Homo sapiens, UniProt P10721); assay: biochemical; assay type: binding; conditions: 10000 nM; read-out: Percent Control
Description: as §5

PIM3 = PIM3 (Homo sapiens, UniProt Q86V86); assay: biochemical; assay type: binding; conditions: 10000 nM; read-out: Percent Control
Description: as §5

PLK4 = PLK4 (Homo sapiens, UniProt O00444); assay: biochemical; assay type: binding; conditions: 10000 nM; read-out: Percent Control
Description: as §5

RET = RET (Homo sapiens, UniProt P07949); assay: biochemical; assay type: binding; conditions: 10000 nM; read-out: Percent Control
Description: as §5

PLK1 = PLK1 (Homo sapiens, UniProt P53350); assay: biochemical; assay type: binding; conditions: 10000 nM; read-out: Percent Control
Description: as §5

PLK3 = PLK3 (Homo sapiens, UniProt Q9H4B4); assay: biochemical; assay type: binding; conditions: 10000 nM; read-out: Percent Control
Description: as §5

MKNK2 = MKNK2 (Homo sapiens, UniProt Q9HBH9); assay: biochemical; assay type: binding; conditions: 10000 nM; read-out: Percent Control
Description: as §5

MEK1 = MEK1 (Homo sapiens, UniProt Q02750); assay: biochemical; assay type: binding; conditions: 10000 nM; read-out: Percent Control
Description: as §5

PAK2 = PAK2 (Homo sapiens, UniProt Q13177); assay: biochemical; assay type: binding; conditions: 10000 nM; read-out: Percent Control
Description: as §5

PAK1 = PAK1 (Homo sapiens, UniProt Q13153); assay: biochemical; assay type: binding; conditions: 10000 nM; read-out: Percent Control
Description: as §5

RIOK2 = RIOK2 (Homo sapiens, UniProt Q9BVS4); assay: biochemical; assay type: binding; conditions: 10000 nM; read-out: Percent Control
Description: as §5

MLK1 = MLK1 (Homo sapiens, UniProt P80192); assay: biochemical; assay type: binding; conditions: 10000 nM; read-out: Percent Control
Description: as §5

MARK3 = MARK3 (Homo sapiens, UniProt P27448); assay: biochemical; assay type: binding; conditions: 10000 nM; read-out: Percent Control
Description: as §5

PDGFRB = PDGFRB (Homo sapiens, UniProt P09619); assay: biochemical; assay type: binding; conditions: 10000 nM; read-out: Percent Control
Description: as §5

IGF1R = IGF1R (Homo sapiens, UniProt P08069); assay: biochemical; assay type: binding; conditions: 10000 nM; read-out: Percent Control
Description: as §5

KIT(D816V) = KIT(D816V) (Homo sapiens, UniProt P10721, D816V); assay: biochemical; assay type: binding; conditions: 10000 nM; read-out: Percent Control
Description: as §5

p38-beta = p38-beta (Homo sapiens, UniProt Q15759); assay: biochemical; assay type: binding; conditions: 10000 nM; read-out: Percent Control
Description: as §5

PCTK1 = PCTK1 (Homo sapiens, UniProt Q00536); assay: biochemical; assay type: binding; conditions: 10000 nM; read-out: Percent Control
Description: as §5

PIM2 = PIM2 (Homo sapiens, UniProt Q9P1W9); assay: biochemical; assay type: binding; conditions: 10000 nM; read-out: Percent Control
Description: as §5

MKNK1 = MKNK1 (Homo sapiens, UniProt Q9BUB5); assay: biochemical; assay type: binding; conditions: 10000 nM; read-out: Percent Control
Description: as §5

LKB1 = LKB1 (Homo sapiens, UniProt Q15831); assay: biochemical; assay type: binding; conditions: 10000 nM; read-out: Percent Control
Description: as §5

PAK4 = PAK4 (Homo sapiens, UniProt O96013); assay: biochemical; assay type: binding; conditions: 10000 nM; read-out: Percent Control
Description: as §5

Chain of MEK1 (Q02750 whole entry): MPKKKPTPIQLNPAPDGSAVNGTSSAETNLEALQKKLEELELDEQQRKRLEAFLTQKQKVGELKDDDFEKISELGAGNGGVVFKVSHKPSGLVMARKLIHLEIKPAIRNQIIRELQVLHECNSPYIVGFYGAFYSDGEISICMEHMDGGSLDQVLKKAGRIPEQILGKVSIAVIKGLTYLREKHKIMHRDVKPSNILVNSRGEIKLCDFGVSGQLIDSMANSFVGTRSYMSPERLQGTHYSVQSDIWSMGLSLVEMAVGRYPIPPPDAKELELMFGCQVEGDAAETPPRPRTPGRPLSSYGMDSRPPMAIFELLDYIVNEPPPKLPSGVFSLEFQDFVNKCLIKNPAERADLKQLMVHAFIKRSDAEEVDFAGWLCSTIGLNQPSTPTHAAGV
Chain of KIT(D816V) (P10721 26-976 D816V): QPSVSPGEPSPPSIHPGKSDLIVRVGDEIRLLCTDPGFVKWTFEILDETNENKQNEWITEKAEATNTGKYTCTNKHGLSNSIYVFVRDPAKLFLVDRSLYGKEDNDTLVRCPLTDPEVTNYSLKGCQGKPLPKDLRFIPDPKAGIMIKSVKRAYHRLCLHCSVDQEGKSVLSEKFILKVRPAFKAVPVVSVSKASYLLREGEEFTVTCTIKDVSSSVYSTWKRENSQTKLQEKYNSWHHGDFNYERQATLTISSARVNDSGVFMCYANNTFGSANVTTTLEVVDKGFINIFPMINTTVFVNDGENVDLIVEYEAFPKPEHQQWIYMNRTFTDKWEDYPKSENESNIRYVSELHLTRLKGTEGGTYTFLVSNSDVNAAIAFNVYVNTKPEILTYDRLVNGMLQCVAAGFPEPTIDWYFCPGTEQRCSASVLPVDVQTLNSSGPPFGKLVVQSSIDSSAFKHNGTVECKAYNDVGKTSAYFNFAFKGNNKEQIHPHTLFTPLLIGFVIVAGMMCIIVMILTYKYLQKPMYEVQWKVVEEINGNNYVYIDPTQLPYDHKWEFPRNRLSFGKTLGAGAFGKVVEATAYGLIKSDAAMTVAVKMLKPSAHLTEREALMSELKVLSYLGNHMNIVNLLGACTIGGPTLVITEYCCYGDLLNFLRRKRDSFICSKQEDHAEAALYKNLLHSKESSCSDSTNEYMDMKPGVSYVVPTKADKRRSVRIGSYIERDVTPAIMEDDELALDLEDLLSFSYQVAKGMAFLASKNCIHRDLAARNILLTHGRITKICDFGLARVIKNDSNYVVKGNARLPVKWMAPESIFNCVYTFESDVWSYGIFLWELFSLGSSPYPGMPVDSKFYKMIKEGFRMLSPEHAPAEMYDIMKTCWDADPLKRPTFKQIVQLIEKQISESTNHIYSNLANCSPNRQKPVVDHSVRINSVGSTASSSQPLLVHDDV
Chain of PAK4 (O96013 whole entry): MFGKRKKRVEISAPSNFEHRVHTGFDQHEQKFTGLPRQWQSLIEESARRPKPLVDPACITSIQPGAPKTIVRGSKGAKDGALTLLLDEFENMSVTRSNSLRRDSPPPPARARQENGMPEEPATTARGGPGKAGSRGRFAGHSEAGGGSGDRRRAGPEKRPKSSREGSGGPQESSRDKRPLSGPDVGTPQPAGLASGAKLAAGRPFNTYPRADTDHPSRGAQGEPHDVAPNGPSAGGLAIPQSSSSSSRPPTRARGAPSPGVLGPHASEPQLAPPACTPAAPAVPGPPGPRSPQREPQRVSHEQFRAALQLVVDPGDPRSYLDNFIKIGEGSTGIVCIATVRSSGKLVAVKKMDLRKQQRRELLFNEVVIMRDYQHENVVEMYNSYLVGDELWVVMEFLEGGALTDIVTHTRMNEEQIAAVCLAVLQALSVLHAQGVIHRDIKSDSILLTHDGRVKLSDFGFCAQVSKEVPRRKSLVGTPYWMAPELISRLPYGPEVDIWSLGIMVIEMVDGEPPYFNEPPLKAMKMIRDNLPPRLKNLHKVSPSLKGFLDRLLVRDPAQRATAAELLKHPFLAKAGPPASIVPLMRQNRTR
Chain of PLK4 (O00444 whole entry): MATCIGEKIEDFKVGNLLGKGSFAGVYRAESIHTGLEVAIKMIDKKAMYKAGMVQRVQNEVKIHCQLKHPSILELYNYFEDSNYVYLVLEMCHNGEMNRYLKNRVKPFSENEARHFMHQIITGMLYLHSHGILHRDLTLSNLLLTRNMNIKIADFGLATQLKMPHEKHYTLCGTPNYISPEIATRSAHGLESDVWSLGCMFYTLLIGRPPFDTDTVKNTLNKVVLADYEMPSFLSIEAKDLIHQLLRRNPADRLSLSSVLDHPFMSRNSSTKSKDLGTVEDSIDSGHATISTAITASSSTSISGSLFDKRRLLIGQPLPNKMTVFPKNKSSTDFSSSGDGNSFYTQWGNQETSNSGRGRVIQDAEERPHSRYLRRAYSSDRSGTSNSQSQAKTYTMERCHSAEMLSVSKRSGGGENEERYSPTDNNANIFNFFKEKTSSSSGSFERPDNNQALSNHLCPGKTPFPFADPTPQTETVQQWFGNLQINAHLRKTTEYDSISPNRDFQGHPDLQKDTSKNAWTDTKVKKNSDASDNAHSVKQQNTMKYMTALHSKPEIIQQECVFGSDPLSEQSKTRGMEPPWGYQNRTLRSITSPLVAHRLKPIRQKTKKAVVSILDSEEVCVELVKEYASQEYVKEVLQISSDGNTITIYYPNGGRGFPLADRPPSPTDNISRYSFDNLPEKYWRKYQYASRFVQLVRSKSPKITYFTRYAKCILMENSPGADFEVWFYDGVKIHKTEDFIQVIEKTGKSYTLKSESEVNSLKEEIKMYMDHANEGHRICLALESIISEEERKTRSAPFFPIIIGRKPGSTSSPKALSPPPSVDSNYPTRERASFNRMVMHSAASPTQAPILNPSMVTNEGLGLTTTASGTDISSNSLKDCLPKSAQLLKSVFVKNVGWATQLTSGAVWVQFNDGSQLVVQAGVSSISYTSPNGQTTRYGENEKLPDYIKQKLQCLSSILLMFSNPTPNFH
Chain of MEK2 (P36507 whole entry): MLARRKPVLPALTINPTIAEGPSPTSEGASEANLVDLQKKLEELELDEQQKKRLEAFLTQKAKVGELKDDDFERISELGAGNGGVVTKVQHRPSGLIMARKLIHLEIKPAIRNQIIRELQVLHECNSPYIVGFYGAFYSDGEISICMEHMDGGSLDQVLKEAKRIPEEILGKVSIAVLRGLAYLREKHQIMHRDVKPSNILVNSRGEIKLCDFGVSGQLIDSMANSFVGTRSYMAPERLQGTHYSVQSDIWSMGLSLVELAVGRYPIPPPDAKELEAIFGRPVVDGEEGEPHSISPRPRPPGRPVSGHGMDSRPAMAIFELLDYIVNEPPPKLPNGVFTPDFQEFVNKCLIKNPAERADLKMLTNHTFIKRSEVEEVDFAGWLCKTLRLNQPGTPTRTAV
Chain of RIOK2 (Q9BVS4 whole entry): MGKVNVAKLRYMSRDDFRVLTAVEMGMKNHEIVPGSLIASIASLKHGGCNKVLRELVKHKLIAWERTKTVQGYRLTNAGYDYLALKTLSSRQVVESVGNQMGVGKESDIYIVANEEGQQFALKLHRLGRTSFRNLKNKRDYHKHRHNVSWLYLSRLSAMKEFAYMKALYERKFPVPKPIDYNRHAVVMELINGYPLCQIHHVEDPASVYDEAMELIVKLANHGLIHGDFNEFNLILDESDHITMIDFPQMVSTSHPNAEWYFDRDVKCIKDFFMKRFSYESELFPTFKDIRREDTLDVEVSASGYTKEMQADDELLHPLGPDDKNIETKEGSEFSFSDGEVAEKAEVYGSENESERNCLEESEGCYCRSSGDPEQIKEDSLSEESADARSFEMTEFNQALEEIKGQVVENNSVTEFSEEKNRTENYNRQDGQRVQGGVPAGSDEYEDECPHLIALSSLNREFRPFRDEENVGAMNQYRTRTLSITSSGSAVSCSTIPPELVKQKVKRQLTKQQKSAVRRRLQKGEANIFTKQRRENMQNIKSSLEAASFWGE
Chain of MKNK2 (Q9HBH9 whole entry): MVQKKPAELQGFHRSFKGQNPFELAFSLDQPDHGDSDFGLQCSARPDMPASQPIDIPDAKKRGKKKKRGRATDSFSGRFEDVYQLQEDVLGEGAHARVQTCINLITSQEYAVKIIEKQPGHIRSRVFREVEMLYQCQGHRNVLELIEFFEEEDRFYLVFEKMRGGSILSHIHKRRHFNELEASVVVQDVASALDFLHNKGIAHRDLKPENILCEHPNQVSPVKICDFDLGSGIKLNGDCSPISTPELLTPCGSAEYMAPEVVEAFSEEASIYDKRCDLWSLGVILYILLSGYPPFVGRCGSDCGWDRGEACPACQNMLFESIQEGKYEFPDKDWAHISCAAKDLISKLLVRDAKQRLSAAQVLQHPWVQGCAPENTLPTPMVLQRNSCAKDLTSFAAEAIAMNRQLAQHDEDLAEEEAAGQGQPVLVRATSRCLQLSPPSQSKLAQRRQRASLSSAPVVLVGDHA
Chain of MKNK1 (Q9BUB5 whole entry): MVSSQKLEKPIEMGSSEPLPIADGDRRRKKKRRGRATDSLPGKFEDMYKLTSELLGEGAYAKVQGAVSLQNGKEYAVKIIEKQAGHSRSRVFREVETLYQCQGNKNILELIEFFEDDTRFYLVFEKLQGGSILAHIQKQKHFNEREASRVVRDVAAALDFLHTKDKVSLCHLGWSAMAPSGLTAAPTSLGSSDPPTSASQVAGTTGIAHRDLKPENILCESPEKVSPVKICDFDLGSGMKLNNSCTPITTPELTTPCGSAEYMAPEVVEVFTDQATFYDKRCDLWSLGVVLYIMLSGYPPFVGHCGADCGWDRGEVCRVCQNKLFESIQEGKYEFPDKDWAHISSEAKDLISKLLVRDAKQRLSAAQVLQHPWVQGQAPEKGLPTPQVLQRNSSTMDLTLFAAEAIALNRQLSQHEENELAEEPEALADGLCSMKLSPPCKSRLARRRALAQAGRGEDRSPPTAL
Chain of KIT (P10721 26-976): as the sequence (P10721 26-976 D816V) above, with V791D counted along it
Chain of KIT(V559D,T670I) (P10721 26-976 V559D/T670I): as the sequence (P10721 26-976 D816V) above, with V534D, T645I, V791D counted along it

**Q.** For `O=C(O)C1CCC2(CC1)CC(Nc1ncnc3[nH]c4c(F)cccc4c13)C2` (stereo not drawn) [Compound 74, OC(=O)C1CCC2(CC(C2)NC=3N=CN=C4NC=5C(F)=CC=CC5C34)CC1], which “activity in full dose-response” value (GPR160) is on record?
**A.** no activity

**Q.** And the “activity in full dose-response” value (NMUR2)?
**A.** no activity

**Q.** And the “activity in full dose-response” value (GPR174)?
**A.** no activity

**Q.** And the remaining activity at 10 µM (SNARK)?
**A.** 54%

**Q.** What about the remaining activity at 10 µM (CSNK1D) of the same compound?
**A.** 3.2%

**Q.** And the remaining activity at 10 µM (PKAC-alpha)?
**A.** 99%

**Q.** What about the remaining activity at 10 µM (KIT(V559D,T670I)) of the same compound?
**A.** 56%

**Q.** What about the remaining activity at 10 µM (MAPKAPK2) of the same compound?
**A.** 98%

**Q.** And the remaining activity at 10 µM (MAP3K4)?
**A.** 92%

**Q.** And the remaining activity at 10 µM (PIK3C2B)?
**A.** 74%

**Q.** What about the remaining activity at 10 µM (MEK2) of the same compound?
**A.** 23%

**Q.** What about the remaining activity at 10 µM (VEGFR2) of the same compound?
**A.** 31%

**Q.** What about the remaining activity at 10 µM (PDGFRA) of the same compound?
**A.** 35%

**Q.** What about the remaining activity at 10 µM (RAF1) of the same compound?
**A.** 98%

**Q.** And the remaining activity at 10 µM (KIT)?
**A.** 75%

**Q.** What about the remaining activity at 10 µM (PIM3) of the same compound?
**A.** 53%

**Q.** And the remaining activity at 10 µM (PLK4)?
**A.** 34%

**Q.** And the remaining activity at 10 µM (RET)?
**A.** 5.9%

**Q.** And the remaining activity at 10 µM (PLK1)?
**A.** 100%

**Q.** And the remaining activity at 10 µM (PLK3)?
**A.** 97%

**Q.** What about the remaining activity at 10 µM (MKNK2) of the same compound?
**A.** 62%

**Q.** What about the remaining activity at 10 µM (MEK1) of the same compound?
**A.** 24%

**Q.** What about the remaining activity at 10 µM (PAK2) of the same compound?
**A.** 66%

**Q.** And the remaining activity at 10 µM (PAK1)?
**A.** 76%

**Q.** And the remaining activity at 10 µM (RIOK2)?
**A.** 54%

**Q.** And the remaining activity at 10 µM (MLK1)?
**A.** 45%

**Q.** And the remaining activity at 10 µM (MARK3)?
**A.** 81%

**Q.** What about the remaining activity at 10 µM (PDGFRB) of the same compound?
**A.** 60%

**Q.** And the remaining activity at 10 µM (IGF1R)?
**A.** 100%

**Q.** What about the remaining activity at 10 µM (KIT(D816V)) of the same compound?
**A.** 76%

**Q.** What about the remaining activity at 10 µM (p38-beta) of the same compound?
**A.** 79%

**Q.** And the remaining activity at 10 µM (PCTK1)?
**A.** 94%

**Q.** And the remaining activity at 10 µM (PIM2)?
**A.** 100%

**Q.** What about the remaining activity at 10 µM (MKNK1) of the same compound?
**A.** 72%

**Q.** And the remaining activity at 10 µM (LKB1)?
**A.** 97%

**Q.** And the remaining activity at 10 µM (PAK4)?
**A.** 65%
